From US12059422B2 (MEI Pharma, Inc., priority 2011, dated 2024) come the findings set out here.

Type in all cases: biochemical
One assay deals with mTOR (Homo sapiens, UniProt P42345). The assay is described as follows: mTOR inhibition (Table 1). The note with it: Table 1, no method described.
For a further assay, the target named is T1, PI3K gamma (Homo sapiens, UniProt P48736).
T1 construct: purchased Invitrogen Corp., Carlsbad, CA, USA
Put plainly: Luciferase-based luminescence assay (ADP Glo), PI3K gamma enzymatic activity. Conditions: inhibition of enzymatic activity, 25 μM ATP, read-out: IC50 p110γ. The procedure: (§1) PI3K catalyzes the conversion of phosphatidylinositol-4,5-bisphosphate (PIP2) and ATP to phosphatidylinositol-3,4,5-trisphosphate (PIP3) and ADP. For all assays, the reaction buffer comprised 50 mM HEPES, pH 7.5, 3 mM MgCl2, 1 mM EGTA, 100 mM NaCl, 0.03% CHAPS and 2 mM DTT. Compounds for testing were dissolved and serially diluted in 100% DMSO (total of 10 concentrations), then diluted 1:25 in reaction buffer.
(§2) PI3K beta and gamma enzymatic activity was determined by measuring the amount of ADP produced following the kinase reaction using a luciferase-based luminescence assay (ADP Glo®, Promega Corp., Madison, WI, USA). PI3K enzyme solutions were prepared by diluting PI3K beta (Millipore, Billerica, MA, USA) or PI3K gamma (Invitrogen Corp., Carlsbad, CA, USA) in reaction buffer, to 4× the final assay concentration (final concentrations of enzymes were 4.8 nM and 7.6 nM for PI3K beta and PI3K gamma respectively). A substrate solution was prepared by mixing PIP2 and ATP in reaction buffer at 2× the final assay concentration (final concentrations were 50 μM and 25 μM for PIP2 and ATP respectively). 2.5 μL each of the compound and kinase mixtures were added to individual wells of white low volume 384-well assay plates and mixed by shaking. The reactions were started by adding 5 μL of substrate mixture per well and shaking. The assay plates were covered and reactions were allowed to proceed for 1 hour. Then, 5 μL of reaction mix was transferred to another white low volume 384-well plate, and 5 μL of ADP-Glo™ reagent was added. The plates were briefly centrifuged and incubated for 40 minutes, after which 10 μL of kinase detection buffer was added. The plates then were centrifuged briefly, shaken slowly and equilibrated at room temperature for 30 minutes, after which luminescence was measured using a FlexStation plate reader (Molecular Devices, Sunnyvale, CA, USA). IC50 values were determined by curve fitting using Graphpad Prism software (Graphpad Software, La Jolla, CA, USA).
Background: ADP-Glo turns the ADP formed in a reaction into a luminescent signal.

A further assay deals with T2, PI3K delta (Homo sapiens, UniProt O00329).
T2 construct: purchased Millipore, Billerica, MA, USA
The assay is described as follows: Luciferase-based luminescence assay (KinaseGlo), PI3K delta enzymatic activity. Conditions: for IC50: inhibition of enzymatic activity, KinaseGlo, 25 μM ATP, read-out: IC50 p110δ; for α/δ ratio: ratio of enzymatic IC50 against PI3Kα over IC50 against PI3Kδ; for β/δ ratio / γ/δ ratio: ratio of enzymatic IC50 values, Table 1. The procedure: as §1
(§3) PI3K alpha and PI3K delta enzymatic activity was determined by measuring the amount of ATP consumed following the kinase reaction using a luciferase-based luminescence assay (KinaseGlo®, Promega Corp., Madison, WI, USA). PI3K enzyme solutions were prepared by diluting PI3K alpha (Invitrogen Corp., Carlsbad, CA, USA) or PI3K delta (Millipore, Billerica, MA, USA) in reaction buffer, to 4× the final assay concentration (final concentrations of enzymes were 1.65 nM and 6.86 nM for PI3K alpha and PI3K delta, respectively). A substrate solution was prepared by mixing PIP2 and ATP in reaction buffer at 2× the final assay concentration (final concentrations were 50 μM and 25 μM for PIP2 and ATP respectively). 2.5 μL each of the compound and kinase mixtures were added to individual wells of white low volume 384-well assay plates and mixed by shaking. The reactions were started by adding 5 μL of substrate mixture per well and shaking. The assay plates were covered and reactions were allowed to proceed for 1 hour (PI3K alpha) or 2 hours (PI3K delta), after which 10 μL of Kinase Glo® reagent was added. The plates were briefly centrifuged and incubated for 10 minutes, after which luminescence was measured using a FlexStation plate reader (Molecular Devices, Sunnyvale, CA, USA). IC50 values were determined by curve fitting using Graphpad Prism software (Graphpad Software, La Jolla, CA, USA).
For orientation: Kinase-Glo measures the ATP left after a reaction by luminescence.

In another assay the target is T3, PI3K alpha (Homo sapiens, UniProt P42336).
T3 construct: purchased Invitrogen Corp., Carlsbad, CA, USA
The assay is described as follows: Luciferase-based luminescence assay (KinaseGlo), PI3K alpha enzymatic activity. The note with it: inhibition of enzymatic activity, 25 μM ATP, read-out: IC50 p110α. As for the experimental part:
as §1, §3

A further assay addresses T4, PI3K beta (Homo sapiens, UniProt P42338).
T4 construct: purchased Millipore, Billerica, MA, USA
The assay is described as follows: Luciferase-based luminescence assay (ADP Glo), PI3K beta enzymatic activity. Conditions: for IC50: inhibition of enzymatic activity, ADP Glo, 25 μM ATP, read-out: IC50 p110β; for α/β ratio: ratio of enzymatic IC50 values, Table 1. The procedure:
as §1, §2

T4 sequence (P42338 whole entry, species assumed): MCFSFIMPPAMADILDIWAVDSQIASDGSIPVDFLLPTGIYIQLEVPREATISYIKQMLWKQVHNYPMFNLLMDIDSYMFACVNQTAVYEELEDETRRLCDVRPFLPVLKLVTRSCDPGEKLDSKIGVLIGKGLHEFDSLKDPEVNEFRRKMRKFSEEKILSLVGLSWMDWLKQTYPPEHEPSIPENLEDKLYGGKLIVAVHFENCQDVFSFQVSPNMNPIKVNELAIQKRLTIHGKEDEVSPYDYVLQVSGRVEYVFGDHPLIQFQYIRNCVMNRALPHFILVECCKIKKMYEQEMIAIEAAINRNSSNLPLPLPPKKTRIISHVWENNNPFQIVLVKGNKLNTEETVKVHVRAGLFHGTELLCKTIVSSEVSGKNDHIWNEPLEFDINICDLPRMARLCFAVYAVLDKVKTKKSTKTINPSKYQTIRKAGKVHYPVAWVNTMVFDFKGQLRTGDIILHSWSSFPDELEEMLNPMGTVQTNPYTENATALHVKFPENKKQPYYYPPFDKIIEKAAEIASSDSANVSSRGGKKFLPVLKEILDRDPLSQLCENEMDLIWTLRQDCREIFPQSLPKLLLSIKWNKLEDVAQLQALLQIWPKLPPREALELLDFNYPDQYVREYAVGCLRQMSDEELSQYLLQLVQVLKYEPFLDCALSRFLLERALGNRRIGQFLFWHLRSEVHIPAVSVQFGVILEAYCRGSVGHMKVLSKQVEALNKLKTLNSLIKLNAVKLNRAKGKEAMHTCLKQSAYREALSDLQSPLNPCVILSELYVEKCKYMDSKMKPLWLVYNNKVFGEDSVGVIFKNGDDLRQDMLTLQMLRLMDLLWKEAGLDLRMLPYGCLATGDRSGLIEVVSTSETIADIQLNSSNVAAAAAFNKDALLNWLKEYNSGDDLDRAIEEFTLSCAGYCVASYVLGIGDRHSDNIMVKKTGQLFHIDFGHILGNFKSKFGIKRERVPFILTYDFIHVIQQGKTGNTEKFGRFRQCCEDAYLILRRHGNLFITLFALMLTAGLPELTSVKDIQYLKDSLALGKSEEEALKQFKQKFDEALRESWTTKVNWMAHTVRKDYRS
T4 sequence (P27986 whole entry partner, species assumed): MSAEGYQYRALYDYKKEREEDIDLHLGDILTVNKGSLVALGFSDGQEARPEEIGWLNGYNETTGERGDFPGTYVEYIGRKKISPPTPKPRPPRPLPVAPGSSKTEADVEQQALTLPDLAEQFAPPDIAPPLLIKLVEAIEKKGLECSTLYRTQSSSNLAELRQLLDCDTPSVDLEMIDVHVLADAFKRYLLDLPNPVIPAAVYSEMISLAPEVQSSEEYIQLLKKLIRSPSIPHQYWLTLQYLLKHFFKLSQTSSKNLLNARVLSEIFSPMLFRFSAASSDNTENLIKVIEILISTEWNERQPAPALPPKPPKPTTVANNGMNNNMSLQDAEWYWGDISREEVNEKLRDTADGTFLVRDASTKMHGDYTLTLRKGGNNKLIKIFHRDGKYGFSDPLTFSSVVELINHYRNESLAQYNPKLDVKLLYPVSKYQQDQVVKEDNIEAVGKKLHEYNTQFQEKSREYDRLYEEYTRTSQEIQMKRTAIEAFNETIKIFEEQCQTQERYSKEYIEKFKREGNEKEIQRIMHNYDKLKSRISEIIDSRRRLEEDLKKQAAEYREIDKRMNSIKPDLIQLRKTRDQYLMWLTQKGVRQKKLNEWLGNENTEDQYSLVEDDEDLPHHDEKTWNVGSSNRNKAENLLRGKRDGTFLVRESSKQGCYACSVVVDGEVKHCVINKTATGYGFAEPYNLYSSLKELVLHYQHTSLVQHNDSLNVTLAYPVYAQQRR
T3 sequence (P42336 whole entry, species assumed): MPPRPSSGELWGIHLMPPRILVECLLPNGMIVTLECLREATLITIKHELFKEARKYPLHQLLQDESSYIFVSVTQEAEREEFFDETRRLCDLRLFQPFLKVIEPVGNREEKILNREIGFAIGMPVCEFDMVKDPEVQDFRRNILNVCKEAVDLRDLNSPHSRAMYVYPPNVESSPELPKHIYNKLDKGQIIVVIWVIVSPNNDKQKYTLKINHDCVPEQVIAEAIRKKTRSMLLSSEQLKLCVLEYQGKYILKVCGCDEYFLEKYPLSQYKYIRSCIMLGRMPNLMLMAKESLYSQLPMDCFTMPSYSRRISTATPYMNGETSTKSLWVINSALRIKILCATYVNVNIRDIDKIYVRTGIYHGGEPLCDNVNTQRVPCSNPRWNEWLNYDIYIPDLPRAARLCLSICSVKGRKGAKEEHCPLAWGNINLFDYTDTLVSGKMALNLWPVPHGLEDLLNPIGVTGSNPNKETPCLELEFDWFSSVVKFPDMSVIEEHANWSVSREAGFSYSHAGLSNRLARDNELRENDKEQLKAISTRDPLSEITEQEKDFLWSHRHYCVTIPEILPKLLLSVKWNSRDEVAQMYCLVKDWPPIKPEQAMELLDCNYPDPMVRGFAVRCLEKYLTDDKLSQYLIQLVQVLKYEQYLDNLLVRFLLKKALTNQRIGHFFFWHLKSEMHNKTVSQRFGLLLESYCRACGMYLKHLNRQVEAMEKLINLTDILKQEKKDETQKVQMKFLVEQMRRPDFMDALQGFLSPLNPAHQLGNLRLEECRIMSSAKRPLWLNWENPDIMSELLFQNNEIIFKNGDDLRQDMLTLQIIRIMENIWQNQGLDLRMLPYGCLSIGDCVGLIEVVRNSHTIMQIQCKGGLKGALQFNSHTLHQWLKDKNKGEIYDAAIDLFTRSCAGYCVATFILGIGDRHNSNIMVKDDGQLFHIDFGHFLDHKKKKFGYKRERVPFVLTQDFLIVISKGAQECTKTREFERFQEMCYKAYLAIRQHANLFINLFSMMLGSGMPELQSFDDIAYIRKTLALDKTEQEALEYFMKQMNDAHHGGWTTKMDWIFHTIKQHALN
T3 sequence (P27986 whole entry partner, species assumed): as the sequence (P27986 whole entry partner, species assumed) above
T1 sequence (P48736 whole entry, species assumed): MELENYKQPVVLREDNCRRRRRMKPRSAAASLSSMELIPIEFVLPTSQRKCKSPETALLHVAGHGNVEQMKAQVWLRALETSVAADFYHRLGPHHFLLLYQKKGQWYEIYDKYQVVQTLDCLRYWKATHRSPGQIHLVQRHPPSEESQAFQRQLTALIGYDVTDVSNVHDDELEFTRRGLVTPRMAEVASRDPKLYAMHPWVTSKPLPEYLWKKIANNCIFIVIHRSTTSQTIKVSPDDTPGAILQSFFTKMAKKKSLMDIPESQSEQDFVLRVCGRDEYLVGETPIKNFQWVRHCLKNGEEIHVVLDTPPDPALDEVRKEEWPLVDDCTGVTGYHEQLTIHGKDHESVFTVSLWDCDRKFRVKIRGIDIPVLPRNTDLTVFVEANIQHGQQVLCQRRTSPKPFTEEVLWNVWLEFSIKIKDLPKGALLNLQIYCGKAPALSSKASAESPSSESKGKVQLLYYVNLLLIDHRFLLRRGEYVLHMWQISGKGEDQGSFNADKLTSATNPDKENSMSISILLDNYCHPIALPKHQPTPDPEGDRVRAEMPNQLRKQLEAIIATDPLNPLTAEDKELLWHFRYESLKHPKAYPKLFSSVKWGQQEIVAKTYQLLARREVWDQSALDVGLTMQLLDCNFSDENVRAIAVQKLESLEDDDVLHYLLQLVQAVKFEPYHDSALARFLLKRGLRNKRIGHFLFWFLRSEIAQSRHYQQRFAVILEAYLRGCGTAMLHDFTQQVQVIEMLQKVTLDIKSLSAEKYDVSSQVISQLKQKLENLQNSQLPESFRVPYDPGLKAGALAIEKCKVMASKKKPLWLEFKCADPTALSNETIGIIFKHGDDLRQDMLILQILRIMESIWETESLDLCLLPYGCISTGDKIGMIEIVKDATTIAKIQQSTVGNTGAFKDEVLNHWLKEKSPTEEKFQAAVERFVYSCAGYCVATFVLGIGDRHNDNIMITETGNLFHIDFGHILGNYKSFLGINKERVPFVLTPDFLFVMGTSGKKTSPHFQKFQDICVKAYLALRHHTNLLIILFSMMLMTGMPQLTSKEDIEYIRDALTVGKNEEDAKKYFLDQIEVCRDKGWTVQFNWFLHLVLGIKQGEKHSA
T2 sequence (O00329 whole entry, species assumed): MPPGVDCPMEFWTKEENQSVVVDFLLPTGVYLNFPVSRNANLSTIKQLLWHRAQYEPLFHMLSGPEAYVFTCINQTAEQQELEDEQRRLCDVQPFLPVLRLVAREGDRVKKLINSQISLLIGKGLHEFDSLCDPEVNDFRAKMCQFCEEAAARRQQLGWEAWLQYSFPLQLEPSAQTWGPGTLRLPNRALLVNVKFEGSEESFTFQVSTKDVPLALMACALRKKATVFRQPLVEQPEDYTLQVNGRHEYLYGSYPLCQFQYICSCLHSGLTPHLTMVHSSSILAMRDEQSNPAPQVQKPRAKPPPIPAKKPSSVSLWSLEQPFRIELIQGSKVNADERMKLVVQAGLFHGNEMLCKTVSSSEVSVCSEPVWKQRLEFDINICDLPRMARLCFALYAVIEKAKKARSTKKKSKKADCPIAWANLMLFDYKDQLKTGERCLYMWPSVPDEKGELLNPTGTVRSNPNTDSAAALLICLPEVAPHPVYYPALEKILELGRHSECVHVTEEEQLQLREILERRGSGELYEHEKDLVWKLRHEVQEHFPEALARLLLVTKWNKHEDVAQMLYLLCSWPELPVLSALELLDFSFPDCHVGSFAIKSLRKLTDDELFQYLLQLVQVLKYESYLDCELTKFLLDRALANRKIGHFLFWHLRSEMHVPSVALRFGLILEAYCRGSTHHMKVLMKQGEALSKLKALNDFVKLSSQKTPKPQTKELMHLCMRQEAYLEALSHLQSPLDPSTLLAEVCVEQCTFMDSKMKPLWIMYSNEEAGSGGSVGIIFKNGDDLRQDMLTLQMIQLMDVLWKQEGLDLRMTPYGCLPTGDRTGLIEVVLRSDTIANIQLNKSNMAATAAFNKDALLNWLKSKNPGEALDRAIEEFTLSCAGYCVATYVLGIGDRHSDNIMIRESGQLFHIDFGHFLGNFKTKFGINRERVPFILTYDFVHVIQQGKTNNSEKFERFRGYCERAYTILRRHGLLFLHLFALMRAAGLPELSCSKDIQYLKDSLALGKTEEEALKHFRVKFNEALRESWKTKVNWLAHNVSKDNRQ
T2 sequence (P27986 whole entry partner, species assumed): as the sequence (P27986 whole entry partner, species assumed) above

The term IC50 denotes the concentration at which inhibition is half-maximal. On mTOR, `CC(C)(CNc1nc(N2CCOCC2)nc(-n2c(C(F)F)nc3ccccc32)n1)c1ccccc1` [Compound A29, 4-(2-(difluoromethyl)-1H-benzo[d]imidazol-1-yl)-N-(2-methyl-2-phenylpropyl)-6-morpholino-1,3,5-triazin-2-amine] showed an IC50 greater than 500 nM. On PI3K gamma, the IC50 is greater than 500 nM. Moreover, at PI3K delta, the IC50 fell in the range of 200 to 500 nM, the α/δ ratio result is recorded as “C’”, the β/δ ratio result is listed as “A’” and the γ/δ ratio entry is “D’”. Moreover, the IC50 on PI3K alpha is greater than 500 nM. In addition, on PI3K beta, the IC50 is greater than 500 nM and the α/β ratio entry is listed as “D’”.

`CC(C)(Nc1nc(N2CCOCC2)nc(-n2c(C(F)F)nc3ccccc32)n1)C1(c2ccccc2)CC1` [Compound A30, 4-(2-(difluoromethyl)-1H-benzo[d]imidazol-1-yl)-N-(2-(1-phenylcyclopropyl)propan-2-yl)-6-morpholino-1,3,5-triazin-2-amine] registered an IC50 on mTOR greater than 500 nM. Also, the IC50 on PI3K gamma is greater than 500 nM. Also, on PI3K delta, the IC50 lay in the range of 100 to 200 nM, the α/δ ratio result is listed as “A’”, the β/δ ratio entry is reported as “D’” and the γ/δ ratio result is “D’”. The IC50 at PI3K alpha was greater than 500 nM. Further, on PI3K beta, the IC50 lay within 200 to 500 nM and the α/β ratio entry is listed as “B’”.

Regarding `CC(C)(Cc1ccccc1-c1ccccc1)Nc1nc(N2CCOCC2)nc(-n2c(C(F)F)nc3ccccc32)n1` [Compound A47, 4-(2-(difluoromethyl)-1H-benzo[d]imidazol-1-yl)-N-(1-(biphenyl-2-yl)-2-methylpropan-2-yl)-6-morpholino-1,3,5-triazin-2-amine], the IC50 on mTOR is greater than 500 nM; on PI3K gamma, greater than 500 nM; on PI3K delta it was no more than 100 nM; on PI3K alpha it was 200 to 500 nM; at PI3K beta, 100 to 200 nM. Besides, the α/δ ratio result at PI3K delta is “A’”. Moreover, on PI3K delta, the β/δ ratio result is on record as “B’”. At PI3K delta, the γ/δ ratio result is given as “A’”. The α/β ratio result at PI3K beta is reported as “D’”.
